Measurements reported in ChEMBL document CHEMBL3272333, “Synthesis and biologic distribution of radioiodinated beta-adrenergic antagonists” (J Med Chem, 1978).

Assays:
Design in all cases: dose 0.5-1 mg/kg, route intravenous
[1] = system: Heart; test: Biodistribution in Sprague-Dawley rat heart at 0.5 to 1 mg/kg, iv after 1 hr by gamma-well counting analysis; assay type: ADME, organism-based; details: in vivo
[2] = system: Bone; test: Biodistribution in Sprague-Dawley rat bone assessed per organ at 0.5 to 1 mg/kg, iv after 1 hr by gamma-well counting analysis; assay type: ADME, organism-based, Bone element; details: in vivo
[3] = system: Thyroid gland; test: Biodistribution in Sprague-Dawley rat thyroid assessed per organ at 0.5 to 1 mg/kg, iv after 1 hr by gamma-well counting analysis; assay type: ADME, organism-based; details: in vivo
[4] = system: Lung; test: Biodistribution in Sprague-Dawley rat lung at 0.5 to 1 mg/kg, iv after 1 hr by gamma-well counting analysis; assay type: ADME, organism-based; details: in vivo
[5] = system: Liver; test: Biodistribution in Sprague-Dawley rat liver at 0.5 to 1 mg/kg, iv after 1 hr by gamma-well counting analysis; assay type: ADME, organism-based; details: in vivo
[6] = system: Bone; test: Biodistribution in Sprague-Dawley rat bone at 0.5 to 1 mg/kg, iv after 15 mins by gamma-well counting analysis; assay type: ADME, organism-based, Bone element; details: in vivo, 0.25 h
[7] = system: Large intestine; test: Biodistribution in Sprague-Dawley rat large intestine assessed per organ at 0.5 to 1 mg/kg, iv after 1 hr by gamma-well counting analysis; assay type: ADME, organism-based; details: in vivo
[8] = system: Spleen; test: Biodistribution in Sprague-Dawley rat spleen assessed per organ at 0.5 to 1 mg/kg, iv after 1 hr by gamma-well counting analysis; assay type: ADME, organism-based; details: in vivo
[9] = system: Liver; test: Biodistribution in Sprague-Dawley rat liver assessed per organ at 0.5 to 1 mg/kg, iv after 15 mins by gamma-well counting analysis; assay type: ADME, organism-based; details: in vivo, 0.25 h
[10] = system: Thyroid gland; test: Biodistribution in Sprague-Dawley rat thyroid at 0.5 to 1 mg/kg, iv after 15 mins by gamma-well counting analysis; assay type: ADME, organism-based; details: in vivo, 0.25 h
[11] = system: Blood; test: Biodistribution in Sprague-Dawley rat blood at 0.5 to 1 mg/kg, iv after 1 hr by gamma-well counting analysis; assay type: ADME, organism-based; details: in vivo
[12] = system: Large intestine; test: Biodistribution in Sprague-Dawley rat large intestine assessed per organ at 0.5 to 1 mg/kg, iv after 15 mins by gamma-well counting analysis; assay type: ADME, organism-based; details: in vivo, 0.25 h
[13] = system: Blood; test: Biodistribution in Sprague-Dawley rat blood assessed per organ at 0.5 to 1 mg/kg, iv after 1 hr by gamma-well counting analysis; assay type: ADME, organism-based; details: in vivo
[14] = system: Lung; test: Biodistribution in Sprague-Dawley rat lung assessed per organ at 0.5 to 1 mg/kg, iv after 15 mins by gamma-well counting analysis; assay type: ADME, organism-based; details: in vivo, 0.25 h
[15] = system: Heart; test: Biodistribution in Sprague-Dawley rat heart assessed per organ at 0.5 to 1 mg/kg, iv after 15 mins by gamma-well counting analysis; assay type: ADME, organism-based; details: in vivo, 0.25 h
[16] = system: Kidney; test: Biodistribution in Sprague-Dawley rat kidney assessed per organ at 0.5 to 1 mg/kg, iv after 1 hr by gamma-well counting analysis; assay type: ADME, organism-based; details: in vivo
[17] = system: Kidney; test: Biodistribution in Sprague-Dawley rat kidney at 0.5 to 1 mg/kg, iv after 15 mins by gamma-well counting analysis; assay type: ADME, organism-based; details: in vivo, 0.25 h
[18] = system: Spleen; test: Biodistribution in Sprague-Dawley rat spleen at 0.5 to 1 mg/kg, iv after 1 hr by gamma-well counting analysis; assay type: ADME, organism-based; details: in vivo
[19] = system: Muscle tissue; test: Biodistribution in Sprague-Dawley rat muscle assessed per organ at 0.5 to 1 mg/kg, iv after 1 hr by gamma-well counting analysis; assay type: ADME, organism-based; details: in vivo
[20] = system: Blood; test: Biodistribution in Sprague-Dawley rat blood assessed per organ at 0.5 to 1 mg/kg, iv after 15 mins by gamma-well counting analysis; assay type: ADME, organism-based; details: in vivo, 0.25 h
[21] = system: Thyroid gland; test: Biodistribution in Sprague-Dawley rat thyroid assessed per organ at 0.5 to 1 mg/kg, iv after 15 mins by gamma-well counting analysis; assay type: ADME, organism-based; details: in vivo, 0.25 h
[22] = system: Bone; test: Biodistribution in Sprague-Dawley rat bone at 0.5 to 1 mg/kg, iv after 1 hr by gamma-well counting analysis; assay type: ADME, organism-based, Bone element; details: in vivo
[23] = system: Kidney; test: Biodistribution in Sprague-Dawley rat kidney assessed per organ at 0.5 to 1 mg/kg, iv after 15 mins by gamma-well counting analysis; assay type: ADME, organism-based; details: in vivo, 0.25 h
[24] = Biodistribution in Sprague-Dawley rat fat and fur assessed per organ at 0.5 to 1 mg/kg, iv after 1 hr by gamma-well counting analysis; assay type: ADME, organism-based, Adipose tissue; details: in vivo
[25] = system: Stomach; test: Biodistribution in Sprague-Dawley rat stomach assessed per organ at 0.5 to 1 mg/kg, iv after 1 hr by gamma-well counting analysis; assay type: ADME, organism-based; details: in vivo
[26] = system: Small intestine; test: Biodistribution in Sprague-Dawley rat small intestine assessed per organ at 0.5 to 1 mg/kg, iv after 1 hr by gamma-well counting analysis; assay type: ADME, organism-based; details: in vivo
[27] = system: Liver; test: Biodistribution in Sprague-Dawley rat liver assessed per organ at 0.5 to 1 mg/kg, iv after 1 hr by gamma-well counting analysis; assay type: ADME, organism-based; details: in vivo
[28] = system: Bone; test: Biodistribution in Sprague-Dawley rat bone assessed per organ at 0.5 to 1 mg/kg, iv after 15 mins by gamma-well counting analysis; assay type: ADME, organism-based, Bone element; details: in vivo, 0.25 h
[29] = system: Spleen; test: Biodistribution in Sprague-Dawley rat spleen assessed per organ at 0.5 to 1 mg/kg, iv after 15 mins by gamma-well counting analysis; assay type: ADME, organism-based; details: in vivo, 0.25 h
[30] = system: Heart; test: Biodistribution in Sprague-Dawley rat heart at 0.5 to 1 mg/kg, iv after 15 mins by gamma-well counting analysis; assay type: ADME, organism-based; details: in vivo, 0.25 h
[31] = system: Lung; test: Biodistribution in Sprague-Dawley rat lung assessed per organ at 0.5 to 1 mg/kg, iv after 1 hr by gamma-well counting analysis; assay type: ADME, organism-based; details: in vivo
[32] = system: Stomach; test: Biodistribution in Sprague-Dawley rat stomach assessed per organ at 0.5 to 1 mg/kg, iv after 15 mins by gamma-well counting analysis; assay type: ADME, organism-based; details: in vivo, 0.25 h
[33] = system: Liver; test: Biodistribution in Sprague-Dawley rat liver at 0.5 to 1 mg/kg, iv after 15 mins by gamma-well counting analysis; assay type: ADME, organism-based; details: in vivo, 0.25 h
[34] = system: Lung; test: Biodistribution in Sprague-Dawley rat lung at 0.5 to 1 mg/kg, iv after 15 mins by gamma-well counting analysis; assay type: ADME, organism-based; details: in vivo, 0.25 h
[35] = system: Muscle tissue; test: Biodistribution in Sprague-Dawley rat muscle at 0.5 to 1 mg/kg, iv after 15 mins by gamma-well counting analysis; assay type: ADME, organism-based; details: in vivo, 0.25 h
[36] = system: Blood; test: Biodistribution in Sprague-Dawley rat blood at 0.5 to 1 mg/kg, iv after 15 mins by gamma-well counting analysis; assay type: ADME, organism-based; details: in vivo, 0.25 h
[37] = system: Heart; test: Biodistribution in Sprague-Dawley rat heart assessed per organ at 0.5 to 1 mg/kg, iv after 1 hr by gamma-well counting analysis; assay type: ADME, organism-based; details: in vivo
[38] = system: Small intestine; test: Biodistribution in Sprague-Dawley rat small intestine assessed per organ at 0.5 to 1 mg/kg, iv after 15 mins by gamma-well counting analysis; assay type: ADME, organism-based; details: in vivo, 0.25 h
[39] = Biodistribution in Sprague-Dawley rat fat and fur assessed per organ at 0.5 to 1 mg/kg, iv after 15 mins by gamma-well counting analysis; assay type: ADME, organism-based, Adipose tissue; details: in vivo, 0.25 h
[40] = system: Kidney; test: Biodistribution in Sprague-Dawley rat kidney at 0.5 to 1 mg/kg, iv after 1 hr by gamma-well counting analysis; assay type: ADME, organism-based; details: in vivo
[41] = system: Spleen; test: Biodistribution in Sprague-Dawley rat spleen at 0.5 to 1 mg/kg, iv after 15 mins by gamma-well counting analysis; assay type: ADME, organism-based; details: in vivo, 0.25 h
[42] = system: Muscle tissue; test: Biodistribution in Sprague-Dawley rat muscle at 0.5 to 1 mg/kg, iv after 1 hr by gamma-well counting analysis; assay type: ADME, organism-based; details: in vivo
[43] = system: Muscle tissue; test: Biodistribution in Sprague-Dawley rat muscle assessed per organ at 0.5 to 1 mg/kg, iv after 15 mins by gamma-well counting analysis; assay type: ADME, organism-based; details: in vivo, 0.25 h

- Drug uptake [1]: 0.58 % ID/g
- Drug uptake [2]: 1.94 %ID
- Drug uptake [3]: 0.17 %ID
- Drug uptake [4]: 1.27 % ID/g
- Drug uptake [5]: 1.59 % ID/g
- Drug uptake [6]: 0.22 % ID/g
- Drug uptake [7]: 1.01 %ID
- Drug uptake [8]: 0.31 %ID
- Drug uptake [9]: 20.19 %ID
- Drug uptake [10]: 6.06 % ID/g
- Drug uptake [11]: 0.06 % ID/g
- Drug uptake [12]: 2.42 %ID
- Drug uptake [13]: 0.74 %ID
- Drug uptake [14]: 1.77 %ID
- Drug uptake [15]: 0.66 %ID
- Drug uptake [16]: 1.83 %ID
- Drug uptake [17]: 2.8 % ID/g
- Drug uptake [18]: 0.6 % ID/g
- Drug uptake [19]: 14.87 %ID
- Drug uptake [20]: 1 %ID
- Drug uptake [21]: 0.12 %ID
- Drug uptake [22]: 0.17 % ID/g
- Drug uptake [23]: 4.38 %ID
- Drug uptake [24]: 6.73 %ID
- Drug uptake [25]: 1.19 %ID
- Drug uptake [26]: 15.4 %ID
- Drug uptake [27]: 12.11 %ID
- Drug uptake [28]: 2.49 %ID
- Drug uptake [29]: 0.52 %ID
- Drug uptake [30]: 0.99 % ID/g
- Drug uptake [31]: 1.41 %ID
- Drug uptake [32]: 1.26 %ID
- Drug uptake [33]: 2.4 % ID/g
- Drug uptake [34]: 1.63 % ID/g
- Drug uptake [35]: 0.22 % ID/g
- Drug uptake [36]: 0.09 % ID/g
- Drug uptake [37]: 0.31 %ID
- Drug uptake [38]: 9.39 %ID
- Drug uptake [39]: 7.66 %ID
- Drug uptake [40]: 1.16 % ID/g
- Drug uptake [41]: 0.97 % ID/g
- Drug uptake [42]: 0.2 % ID/g
- Drug uptake [43]: 16.64 %ID
Structure (SMILES): CC(=O)c1cc(NC(=O)c2cccc([125I])c2)ccc1OCC(O)CNC(C)C (racemic)
